Test results published in patent US7402697B2, “Antibacterial agents” (Idexx Laboratories Inc., priority 2004, dated 2008).
≈ marks a conversion by molar mass, not a printed value. Entries after “also recorded” stand apart in the source; their conditions may differ.

How the values were obtained:
[1] = Serum concentration as a function of time after subcutaneous administration to dogs (HPLC); format: in vivo; conditions: for clearance of each isomer, serum concentration as percent of CmaxR or CmaxS as a function of time: 40 mg/kg of A2 as equimolar mixture of (R) and (S) acylamido configuration; for clearance rate: compared with NUFLOR®
Experimental: The pharmaceutical composition was then administered to dogs at a dose of 40 mg/kg. Blood samples were taken from the dog at various time points and serum separated using standard methods well known to those skilled in the art. The serum was then analyzed using HPLC according to the following procedure: A C18 Sep-Pak Plus® cartridge (Sep-Pak) (commercially available from Waters of Milford, Mass.) was rinsed with 5 mL of methanol followed by 5 mL of water and loaded with 1 mL of serum. After loading, the Sep-Pak was washed with 2 mL of water, 2 mL of 15% aqueous acetonitrile, and 3 mL of hexane. The Sep-Pak was then eluted with 4 mL of acetonitrile and the eluant collected. The acetonitrile was evaporated using a stream of nitrogen to provide a residue and the resulting residue was reconstituted with 1 mL of 25% aqueous acetonitrile to provide an assay solution. 50 μL of the assay solution was then analyzed by HPCL using high pressure liquid chromatography equipped with a Beckman Coulter Ultraphere C-18 5 μM×4.6 mm×250 mm analytical column eluted at a flow of 1.2 mL/min. using a gradient of water and acetonitrile according to the following profile: [table] The HPLC system was interfaced to a UV detector operated at 223 nm. […] The pharmaceutical composition was then administered to dogs subcutaneously at a a dose of 40 mg/kg. Blood samples were taken from the dogs at various time points and the blood samples treated as described above. The serum was then analyzed using the HPLC procedure described above. […] The pharmaceutical composition was then administered to dogs subcutaneously at a a dose of 40 mg/kg. Blood samples were taken from the dogs at various time points and the blood samples treated as described above. The serum was then analyzed using the HPLC procedure described above. […] The maximum serum level was determined for each isomer (CmaxR and CmaxS, respectively).

B. subtitis = experiment: Minimum inhibitory concentration, disk diffusion susceptibility testing; format: cell-based
Experimental: (§1) The activity of a Fenicol Compound against a bacteria is determined using standard dilution tests. For example, the minimum inhibitory concentrations can be determined using the disk diffusion susceptibility testing method described in Clinical Microbiology Procedures Handbook, volume 1, edited by Henry D. Isenberg, American Society for Microbiology, 1992, section 5.1 or the well known method of Bauer et al. “Antibiotic Susceptibility Testing by a Standardized Single Disc Method,” Amer. J. Clin. Pathol., 45, p. 493-496.

B. bronchoseptica = experiment: as above; format: cell-based
Experimental: as §1

K. pneumoniae = experiment: as above; format: cell-based
Experimental: as §1

E. coli = experiment: as above; format: cell-based; conditions: for Minimum Inhibitory Concentration: E. coli
Experimental: as §1

S. aureaus = experiment: as above; format: cell-based
Experimental: as §1

S. pyogenes = experiment: as above; format: cell-based
Experimental: as §1

E. faecalis = experiment: as above; format: cell-based
Experimental: as §1

| SMILES | Minimum Inhibitory Concentration (B. subtitis) | Minimum Inhibitory Concentration (B. bronchoseptica) | Minimum Inhibitory Concentration (K. pneumoniae) | Minimum Inhibitory Concentration (E. coli) | Minimum Inhibitory Concentration (S. aureaus) | Minimum Inhibitory Concentration (S. pyogenes) | maximum serum concentration ([1]; 40 mg/kg) | further results |
| --- | --- | --- | --- | --- | --- | --- | --- | --- |
| C[C@H](C(=O)N[C@H](CF)[C@H](O)c1ccc(S(C)(=O)=O)cc1)C(F)(F)F [A2 wherein the acylamido group is present in the (R) stereoc] | – | – | – | – | – | – | – | clearance of each isomer, serum concentration as percent of CmaxR or CmaxS as a function of time ([1]; 40 mg/kg): decreases much more slowly |
| CC(Cl)C(=O)NC(CF)C(O)c1ccc(S(C)(=O)=O)cc1 (mixture of isomers) [E2 + I2 (Racemic Mixture)] | 0.5 µg/mL | 3 µg/mL | 5 µg/mL | 3 µg/mL | 2 µg/mL | – | – | – |
| CS(=O)(=O)c1ccc([C@@H](O)[C@@H](CF)NC(=O)CCl)cc1 [D-threo-2-chloro-N-[1-(fluoromethyl)-2-hydroxy-2-[4-methylsulfonyl)phenyl]ethyl]-acetamide] | 0.5 µg/mL | 3 µg/mL | 5 µg/mL | 3 µg/mL | 2 µg/mL | – | – | – |
| C[C@@H](C(=O)N[C@H](CF)[C@H](O)c1ccc(S(C)(=O)=O)cc1)C(F)(F)F | – | – | – | – | – | – | – | clearance of each isomer, serum concentration as percent of CmaxR or CmaxS as a function of time [1]: decreases rapidly |
| CC(F)C(=O)NC(CF)C(O)c1ccc(S(C)(=O)=O)cc1 (mixture of isomers) [E5 + I5 (Racemic Mixture)] | 1 µg/mL | >10 µg/mL | 5 µg/mL | 5 µg/mL | 5 µg/mL | 5 µg/mL | – | Minimum Inhibitory Concentration (E. faecalis): 3 µg/mL |
| CC(C(=O)NC(CF)C(O)c1ccc(S(C)(=O)=O)cc1)C(F)(F)F (mixture of isomers) [A2] | 5 µg/mL | – | – | 7 µg/mL | 7 µg/mL | 5 µg/mL | ~5 µg/mL | Minimum Inhibitory Concentration (E. faecalis): 5 µg/mL; serum concentration compared with NUFLOR® ([1]; 40 mg/kg): much higher serum concentration; clearance rate ([1]; 40 mg/kg): much slower than the clearance rate of NUFLOR®; also recorded: cleared more slowly than is NUFLOR® |
| CS(=O)(=O)c1ccc([C@@H](O)[C@@H](CF)NC(=O)C(Cl)Cl)cc1 [Fluorfenicol, reference compound] | – | – | – | – | – | – | less than 0.8 μg/mL | MIC (S. pyogenes; Streptococcus pyogenes): 1 µg/mL (≈ 2.79 µM); MIC (B. subtitis): 1 µg/mL (≈ 2.79 µM); MIC (B. bronchoseptica): 1 µg/mL (≈ 2.79 µM); MIC (K. pneumoniae; Klebsiella pneumoniae): 3 µg/mL (≈ 8.37 µM); MIC (E. coli; Escherichia coli, read-out: Minimum Inhibitory Concentration): 1 µg/mL (≈ 2.79 µM); MIC (S. aureaus): 1 µg/mL (≈ 2.79 µM); MIC (E. faecalis; Enterococcus faecalis): 3 µg/mL (≈ 8.37 µM) |
| C[C@H](C(=O)N[C@H](CF)[C@H](O)c1ccc(S(C)(=O)=O)cc1)C(F)(F)F [A2 wherein the acylamido group has the (R) stereochemical co] | – | – | – | – | – | – | – | clearance of each isomer, serum concentration as percent of CmaxR or CmaxS as a function of time ([1]; 40 mg/kg): cleared more slowly |
| CC(C)C(=O)N[C@H](CF)[C@H](O)c1ccc(S(C)(=O)=O)cc1 [A1] | 2 µg/mL | – | – | 5 µg/mL | 3 µg/mL | 5 µg/mL | ~7 µg/mL | serum concentration compared with NUFLOR® ([1]; 40 mg/kg): higher serum concentration than NUFLOR®; clearance rate ([1]; 40 mg/kg): cleared much more slowly; also recorded: cleared more slowly than NUFLOR® |
